Reference: patent publication US6001818A, “Use of 2',3'-dideoxycytidin-2'-ene (2'- ,3'-dideoxy-2'3'-didehydrocytidine) in treating patients infected with retroviruses” (Yale University, priority 1991, dated 1999)

Experiments:
[1] = tested on: Moloney Murine Leukemia Virus; assay: Antiviral screening against Moloney Murine Leukemia Virus (M-MuLV) by XC-assay (plaque reduction, SC-1 cells); type: cell-based; conditions: SC1, SC-1/XC cells, Reed-Muench Method, read-out: ID50 (median inhibitory dose, virus plaque number)
Text: Assay Procedure For Antiviral […] Against Moloney Murine Leukemia Virus (M-MuLV) By XC-Assay: The XC assay system is an indirect method for quantitation of murine-leukemia virus (MULV) originally described by […] et al, Proc. Nat'l. Acad Sci., 63, 753-758, (1969) and modified by W. Rowe et al, Virology, 42, 1136-1139, (1970). This test is based on the development of syncytial changes in the XC cell line when it is co-cultivated with mouse fibroblast cells (SC-1 cells) productively infected with MULV. The XC cell line was derived from a rat tumor induced by the Prague strain of Rous Sarcoma Virus (RSV) (J. Svobada et al, Folia Biol., 9, 77-81, […]). […] The following day, the cells were inoculated with 0.5 mL of a virus dilution containing 25 μg/mL of DEAE-dextran. […] The virus inoculum was then removed and replaced with 5mL of medium containing appropriate concentration of the test compound (two dishes/concentration). […] The medium (with or without the test compound) was changed at 48 hours. Five days after virus inoculation, the culture fluid was decanted and the cells were irradiated with a "GE" germicidal bulb for 30 seconds (60 ergs/mm^2 /sec UV-light). […] Virus plaques (i.e., areas of the cell sheet containing syncytial cells or focal masses of multinucleated giant cells) were counted using an inverted microscope.

[2] = tested on: HTLV-III/LAV; assay: Fluorescent assay of inhibition of HTLV-III/LAV in MT-2 cells (monoclonal antibody αp18); type: cell-based; conditions: day 7 post-infection
[3] = tested on: HTLV-III/LAV; assay: Inhibition of HTLV-III/LAV cytopathic effect in MT-2 cells (visual inspection); type: cell-based; conditions: for % Apparent CPE (destroyed cells / total cells scored): MT-2 cells, day 7 post-infection
[4] = tested on: MT-2 cells; assay: Viability of HTLV-III/LAV-infected MT-2 cells (trypan blue exclusion); type: cell-based; conditions: Homo sapiens, MT2, 168 h, day 7 post-infection, read-out: % Viable Cells (cells that excluded trypan blue / cells scored)
[5] = tested on: HTLV-III/LAV virus; conditions: Mitsuya and Broder, supra; cited from earlier work
[6] = Water solubility (compared with AZT); type: physicochemical; conditions: compared with 3'-azido-3'-deoxythymidine (AZT)
[7] = tested on: retroviruses, e.g., murine leukemia virus and HTLV III/LAV virus; assay: Antiviral activity against retroviruses (general statement); type: cell-based; conditions: murine leukemia virus and HTLV III/LAV virus (the AIDS virus)

Row | Compound | IC50 [1] [µM] | % Fluoresence (fluorescent cells / total cells scored) ([2]; 0.5 μM) [%] | % Fluoresence (fluorescent cells / total cells scored) ([2]; 1.0 μM) [%] | % Apparent CPE (destroyed cells / total cells scored) ([3]; 0.5 μM) [%] | % Apparent CPE (destroyed cells / total cells scored) ([3]; 1.0 μM) [%] | viability at 0.5 µM [4] [%] | viability at 1 µM [4] [%] | potency against HTLV-III/LAV virus in culture [5] | effective dose compared with 2',3'-dideoxycytidine ([3]; HTLV-III/LAV infection in vitro, conclusion from Table 2 data) | antiviral activity against HTLV-III/LAV infection in vitro ([3]; conclusion from Table 2 data) | water solubility [6] | antiviral activity against retroviruses [7]
1 | Nc1ccn([C@H]2CC[C@@H](CO)O2)c(=O)n1 [2',3'-dideoxycytidine, reference compound] | 4 | 4.3 ± 0.3 | 0.2 ± 0.1 | 40 ± 10 | 1.0 ± 0.0 | 75 | 96 | known potent compound against HTLV-III/LAV virus in culture |  |  |  | 
2 | Nc1ccn([C@H]2C=C[C@@H](CO)O2)c(=O)n1 [2',3'-dideoxycytidin-2'-ene] | 3.7 | 5.6 ± 5.5 | 1.1 ± 0.1 | 90 ± 0.0 | 0.5 ± 0.5 | 22 | 90 |  | effective dose falls in the same range as 2',3'-dideoxycytidine | has antiviral activity against the HTLV-III/LAV infection in vitro | much better water solubility than that of 3'-azido-3'-deoxythymidine (AZT) | has antiviral activity against retroviruses
